Read-outs that look alike come from different tables or passages of the source. Where only a bound is given, the exact number is not on record here.

Consider 14 compounds from patent EP3419609B1, “TREATMENT OF ALKAPTONURIA AND TYROSINEMIA TYPE 1” (Università degli Studi di Siena, priority 2016, dated 2017).

Data set [1] deals with primary human fibroblasts (HFb). As to the kind of experiment: in vitro. The format is cell-based. How it is done: (§1) 12×10^4 primary human fibroblasts (ATCC, cat PCS-201-012) were treated with compounds at various concentrations (10^-7 M, 10^-6 M, 10^-5 M, 10^-4 M, 10^-3 M) for 24 and 144 h. HFb were cultured as described in [21]. Cellular viability was quantified by the MTT assay (Sigma-Aldrich cod. M5655) as described in [22]. Controls were performed treating the cells with vehicle (DMSO) alone. Calculation of LD50 was performed by means of the Origin® - Data Analysis and Graphing software using a sigmoid type interpolating curve.
(§2) LD50 was evaluated in vitro using the MTT cell viability assay for the first time on human cells, in particular on primary human fibroblasts (HFb). […] Intracellular tyrosine was measured in HFb by LC-MS-MS analysis.

In data set [2] the test system is human fibroblasts (HFb). Description: Tyrosine dosage: intracellular tyrosine in HFb by LC-MS-MS. The data set is classed as cell-based. Particulars: for slope of dose-response curve of intracellular tyrosine: tyrosine ng in 9×10^4 cells versus concentration, Figure 3A. Here is the method:
Intracellular tyrosine was calculated in HFb (9×10^4 cells/well) treated for 72 h with the compounds under assessment at various concentrations (10^-8, 10^-7, 10^-6 and 10^-5 M); controls were performed using the carrier at the concentration corresponding to the highest dose of the compound under assessment. At the end of treatment, the cells were recovered by scraping in the presence of norvaline (10^-3 M, used as internal standard, Sigma-Aldrich cod. N7627) and cold methanol (40 µL, Sigma-Aldrich cod. 34860), and subsequently lysed by cycles of freezing/thawing in a bath of dry ice/nitrogen. The lysate was centrifuged (6000g for 5 min) and the supernatant was then recovered, evaporated and re-suspended with 100 µL of 0.05% formic acid. Each sample was analysed by LC-MS-MS. In particular, the analysis was performed with a chromatographic instrument manufactured by Varian (Varian Inc.) run by the software Varian MS Workstation System Control Vers. […] Subsequently, the concentration of each compound was correlated with the amount of intracellular tyrosine contained in 9×10^4 cells and the resulting dose-response curve was obtained using the Origin® - Data Analysis and Graphing software by means of a linear type interpolating curve.
as §2

For data set [3] the following is noted: alkaptonuria patients, over the course of 3 years; cited from earlier work.
The target of data set [4] is T1, 4-HPPD (Rattus norvegicus, UniProt P32755).
T1 construct: from tissue; host or cells: liver cytosol of a male Wistar rat
Description: Determination of 4-HPPD activity by oxygen consumption (SDR SensorDish Reader) in rat liver cytosol. The format is biochemical, male Wistar rat. Here is the method: 4-HPPD activity was evaluated in the liver cytosol of a male Wistar rat by monitoring oxygen consumption through the use of the SDR SensorDish® Reader (Presens, Precision Sensing GmbH, Regensburg, Germany). Briefly, a special test tube with an oxygen sensor placed on the bottom was filled with 0.2 M sodium phosphate buffer with pH 7.4, 1.7 mM ascorbic acid (used as a cofactor) and 10.92 mg of rat enzyme preparation (4-HPPD source). The mixture was equilibrated at 37°C for 5 min. and the reaction was started by the addition of substrate ([…], Sigma-Aldrich cod. SAE0003). […] The percentage of inhibition of enzymatic activity was calculated as the ratio of the slopes (decrease of the concentration of O2 (µmol/L) per min.) of the samples containing the inhibitor versus the untreated controls corrected with the negative control values. The IC50 values were calculated by means of regression analysis in the range of tested concentrations by means of the Origin® - Data Analysis and Graphing software using a sigmoid type interpolating curve and plotting on the x-axis the concentrations of the compounds and on the y-axis oxygen consumption values expressed as a percentage of 4-HPPD inhibition, the reduction of oxygen being correlated with inhibition of the enzyme.
4-HPPD inhibition was determined in the cytosolic extract of rat liver (source of the enzyme), by evaluation of enzymatic consumption of oxygen using the SDR SensorDish ® Reader, and was expressed as an IC50 value.

Data set [5] in a line: in vitro. The format is cell-based. Conditions: after 144 h of treatment, concentration 1 mM; read-out: viability of HFb. How it is done: as §1, §2
[6] abbreviates: rat liver cytosol, oxygen consumption, read-out: IC50.
[7] abbreviates: rat liver cytosol, oxygen consumption, read-out: IC50 (4-HPPD inhibitory activity).
Setting [8] is: rat liver cytosol, oxygen consumption.

T1 sequence (P32755 whole entry): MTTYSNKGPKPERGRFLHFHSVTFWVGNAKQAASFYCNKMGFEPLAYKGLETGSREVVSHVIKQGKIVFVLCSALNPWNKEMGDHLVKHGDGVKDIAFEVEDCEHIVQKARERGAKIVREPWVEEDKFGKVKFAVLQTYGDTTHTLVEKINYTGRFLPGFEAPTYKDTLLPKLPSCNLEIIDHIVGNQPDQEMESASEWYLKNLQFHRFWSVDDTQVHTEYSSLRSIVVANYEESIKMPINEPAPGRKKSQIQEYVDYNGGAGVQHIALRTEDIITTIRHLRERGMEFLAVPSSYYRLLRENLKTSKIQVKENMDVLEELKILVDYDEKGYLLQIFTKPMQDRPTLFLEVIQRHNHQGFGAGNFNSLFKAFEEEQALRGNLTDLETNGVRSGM

For `O=C1CCCC(=O)C1C(=O)c1ccc(C(F)(F)F)cc1[N+](=O)[O-]` [Compound 1, 2-(2-nitro-4-(trifluoromethyl)benzoyl)cyclohexane-1,3-dione, reference compound], in data set [1] (human, 24 h), the “LD50 24 hours” value was greater than 1 mM [c] and the “LD50 at 24 h” value is > 10^-3 M. In data set [1] (human, 144 h), the “LD50 144 hours” value was roughly 1 mM and the “LD50 at 144 h” value is given as 10^-3 M. Besides, the “intracellular tyrosine increased compared to untreated HFb” value in data set [2] (72 h, concentration 10^-5 M) is reported as roughly 32%. Further, in data set [2] (72 h, concentration 10^-6 M), the “intracellular tyrosine increased compared to untreated HFb” value was “about 21%”. Also, the “slope of dose-response curve of intracellular tyrosine” value in data set [2] (72 h) came to 5.47. Moreover, the “reduction of HGA in urine and plasma” value in data set [3] is 95%.
One may read the IC50 as the point on the concentration scale where inhibition reaches its midpoint. As to `CS(=O)(=O)c1ccc(C(=O)C2C(=O)C(O)CC(O)C2=O)c(Cl)c1COCC(F)(F)F` (centres unmarked) [Compound 2, 2-[2-Chloro-4-methylsulfonyl-3-(2,2,2-trifluoroetoxyimethyl)benzoyl]-4,6-dihydroxy-cyclohexane-1,3-dione], the IC50 in data set [4] (setting [6]) came to 227 ± 9 nM. Besides, the “LD50 24 hours” value in data set [1] (human, 24 h) is 0.48 ± 0.04 mM. Also, in data set [1] (human, 144 h), the “LD50 144 hours” value was determined as 0.48 ± 0.03 mM.
On to `CS(=O)(=O)c1ccc(C(=O)C2C(=O)CCCC2=O)c(Cl)c1COCC(F)(F)F` [Compound 3, 2-[2-Chloro-4-methylsulfonyl-3-(2,2,2-trifluoroetoxymethyl)benzoyl]cyclohexane-1,3-dione], for which the IC50 in data set [4] (setting [6]) was found to be 152 ± 6 nM; in data set [4] (setting [7]), 152 nM. Also, the “LD50 24 hours” value in data set [1] (HFb, MTT, 24 hours treatment) is greater than 1 mM [c]. In data set [1] (HFb, MTT, 144 hours treatment), the “LD50 144 hours” value is greater than 1 mM [c]. The LD50 result in data set [1] (HFb, treatment time not given) is “greater than 10^-3 M”. Also, in data set [2] (72 h), the “slope of dose-response curve of intracellular tyrosine” value is 1.89.
Take `CS(=O)(=O)c1ccc(C(=O)C2C(=O)CCCC2=O)c([N+](=O)[O-])c1` [Compound 4, 2-(4-Methylsulfonyl-2-nitrobenzoyl)-cyclohexane-1,3-dione]: the values for the IC50 in data set [4] (setting [6]) and in data set [4] (setting [7]) were 36.7 ± 9.7 nM and 36.7 nM, respectively. For the same compound, the “LD50 24 hours” value in data set [1] (HFb, MTT, 24 hours treatment) was determined as 1.1 ± 0.1 mM. Moreover, the “LD50 144 hours” value in data set [1] (HFb, MTT, 144 hours treatment) is greater than 1 mM [c]. For the same compound, in data set [2] (72 h, highest inhibitor concentration, p<0.01), the “tyrosine level lower than in the control” value is recorded as “about 14%”. Further, the “intracellular tyrosine levels higher than in the control group” value in data set [2] (72 h, lowest inhibitor concentration analysed, p<0.01) was “about 17%”.
In data set [4], `CS(=O)(=O)c1cc(C(F)(F)F)ccc1C(=O)c1cnoc1C1CC1` [Compound 5] had an IC50 of 399 ± 19 nM. Besides, in data set [1] (HFb, MTT, 24 hours treatment), the “LD50 24 hours” value was greater than 1 mM [c]. In addition, the “LD50 144 hours” value in data set [1] (HFb, MTT, 144 hours treatment) is 0.11 ± 0.07 mM.
The viability is a per cent measure of how many cells are alive, often set against a control. Turning to `CC1(C)CC(=O)C(C(=O)c2ccc([N+](=O)[O-])cc2Cl)C(=O)C1` [Compound 6, 2-(2-chloro-4-nitro-benzoyl)-5,5-dimethyl-cyclohexane-1,3-dione], the “residual activity of the enzyme” value in data set [4] (rat liver cytosol 4-HPPD) is listed as roughly 30%. The IC50 is 36.4 ± 9.3 nM in data set [4] (setting [6]) and roughly 36.4 nM in data set [4] (rat liver cytosol, read-out: IC50). Also, the viability at 144 h, 1 mM in data set [5] is roughly 75%. For the same compound, the “LD50 24 hours” value in data set [1] (human, 24 h) is greater than 1 mM [c]. Moreover, the “LD50 144 hours” value in data set [1] (human, 144 h) is greater than 1 mM [c]. In data set [2] (highest concentration tested, treatment for three days, p<0.01), the “intracellular tyrosine accumulation lower than that found for compound 1” value is “about 7%”.
For the compound `COC(=O)C1C(=O)C(C(=O)c2ccc([N+](=O)[O-])cc2)C(=O)CC1(C)C` (centres unmarked) [Compound 7, 2,2-Dimethyl-5-(4-nitrobenzoyl)-4,6-dioxycyclohexane methyl carboxylate], the IC50 result in data set [4] (setting [8]) is listed as “no inhibition”. The “LD50 24 hours” value in data set [1] (human, 24 h) was found to be 0.63 ± 0.12 mM. Besides, in data set [1] (human, 144 h), the “LD50 144 hours” value was greater than 1 mM [c].
For the compound `CC1(C)CC(=O)C(C(=O)c2ccccc2)C(=O)C1Cl` (centres unmarked) [Compound 8, 2-Benzoyl-4-chloro-5,5-dimethyl-cyclohexane-1,3-dione], in data set [4] (setting [8]), the IC50 result is given as “no inhibition”. For the same compound, the “LD50 24 hours” value in data set [1] (human, 24 h) is greater than 1 mM [c]. For the same compound, the “LD50 144 hours” value in data set [1] (human, 144 h) was greater than 1 mM [c].
Consider `CC1(C)CC(=O)C(C(=O)c2ccccc2)C(=O)C1` [Compound 9, 2-Benzoyl-5,5-dimethyl-cyclohexane-1,3-dione], for which, in data set [4] (setting [8]), the IC50 result is “no inhibition”. The “LD50 24 hours” value in data set [1] (human, 24 h) is greater than 1 mM [c]. Besides, the “LD50 144 hours” value in data set [1] (human, 144 h) was greater than 1 mM [c].
As for `Cc1cc(C2C(=O)C(C(=O)c3ccc(Cl)cc3)C(=O)CC2(C)C)on1` (centres unmarked) [Compound 10, 2-(4-chlorobenzoyl)-5,5-dimethyl-4-(3-methyl-isoxazol-5-yl)-cyclohexane-1,3-dione], the IC50 in data set [4] (setting [6]) turned out to be 59900 ± 1800 nM. The “LD50 24 hours” value in data set [1] (human, 24 h) is greater than 1 mM [c]. In data set [1] (human, 144 h), the “LD50 144 hours” value is listed as 0.82 ± 0.20 mM.
As for `CC1(C)C(Cl)C(=O)C(C(=O)c2ccccc2)C(=O)C1Cl` (centres unmarked) [Compound 11, 2-Benzoyl-4,6-dichloro-5,5-dimethyl-cyclohexane-1,3-dione], the IC50 in data set [4] (setting [6]) turned out to be 192 ± 2 nM. In addition, the “LD50 24 hours” value in data set [1] (human, 24 h) was greater than 1 mM [c]. For the same compound, the “LD50 144 hours” value in data set [1] (human, 144 h) was found to be 0.29 ± 0.08 mM.
With `O=C1CCC(c2ccccc2)C(=O)C1C(=O)c1ccc(Cl)cc1Cl` (centres unmarked) [Compound 13, 2-(2,4-dichlorobenzoyl) -4-phenyl-cyclohexane-1,3-dione], the IC50 in data set [4] (setting [6]) amounted to 279 ± 6 nM. Further, in data set [1] (human, 24 h), the “LD50 24 hours” value is greater than 1 mM [c]. Moreover, the “LD50 144 hours” value in data set [1] (human, 144 h) is 0.36 ± 0.15 mM.
As to `CC1(C)CC(=O)C(C(=O)c2ccc(C(F)(F)F)cc2Cl)C(=O)C1` [Compound 14, 2-(2-Chloro-4-trifluoromethylbenzoyl)-5,5-dimethyl-cyclohexane-1,3-dione], in data set [4] (setting [6]), the IC50 is 10500 ± 3700 nM. For the same compound, in data set [1], the “cytotoxicity (in words)” value is “not cytotoxic”.
Consider `CC1(C)CC(=O)C(C(=O)c2ccc(C(F)(F)F)cc2[N+](=O)[O-])C(=O)C1` [Compound 15, 2-(2-Nitro-4-trifluoromethylbenzoyl)-5,5-dimethyl-cyclohexane-1,3-dione], for which, in data set [4], the IC50 was found to be 61.6 ± 7.4 nM. In data set [1] (HFb, LD50 24 h), the “cytotoxicity (in words)” value is recorded as “not cytotoxic”. The “LD50 24 hours” value in data set [1] (HFb, MTT, 24 hours treatment) is greater than 0.01 mM.
